# Legend:
# Assay in all cases: GABA concentration-response assay, whole-cell patch clamp, HEK293T
# Type in all cases: cell-based
# Conditions in all cases: GABA Hill fit
# [1] = target: T1, α4(P161T)β2γ2 GABAA receptor (Homo sapiens, UniProt P18507+P47870+P48169, P196T)
# T1 construct: expressed in transfected cells; host or cells: HEK293T
# From the text: (§1) Human (Homo sapiens) GABAA subunits (α1‐6, β2, γ2s) were subcloned into pcDNA3.1+ vectors with a cytomegalovirus (CMV) promoter. The hβ2 and hα3 sequences were humanized rat (Rattus norvegicus) cDNA with amino acid substitutions made to match the human protein sequence. The α1‐3, α5, β2, and γ2s subunits were a generous gift from Neil L. Harrison (Columbia University Medical Center, NY). The α4 subunit was obtained from GenScript (Piscataway, NJ), and the α6 subunit was a generous gift from Robert L. McDonald (Vanderbilt University, TN). All point mutations (listed in Figure 1C) were introduced using the QuikChange Lightening site‐directed mutagenesis kit (Agilent Technologies, Santa Clara, CA) according to the manufacturer's instructions and were confirmed by sequencing (Eurofins MWG Operon, Louisville, KY).
# (§2) Human embryonic kidney cells containing the SV40 T‐antigen (HEK293T) were acquired from American Type Culture Collection (ATCC®, Manassas, VA), catalogue number, CRL3216. HEK293T cells were maintained at 37°C and 5% CO2 in Eagle Minimum Essential Medium (MEM) supplemented with 5% fetal bovine serum (Atlanta Biologicals Inc., Flowery Branch, GA), 40 μM L‐glutamine, 100 U/mL penicillin and 0.1 mM streptomycin. Cells were passaged regularly when they reached 70% confluency using trypsin. Cells were not passaged more than 22 times. New cells were revived from frozen stocks at passage 2‐4. Cells used for in vitro electrophysiology experiments were grown on poly‐D‐lysine‐coated glass coverslips (No.2, VWR, Radnor, PA) and transfected with X‐tremeGENE (Roche Diagnostics, Indianapolis, IN) with the desired receptor subunit cDNAs at a 1:1:1 ratio to express αxβ2γ2s receptors (2 μg total cDNA) and with 0.5 μg green fluorescent protein (GFP) as an expression marker. The γ2s incorporation into receptors was tested with zinc inhibition assays regularly.24 Patch clamp experiments were performed on cells at 24‐72 hours post‐transfection. All experiments were performed at 22°C. Experiments consisted of at least five cells recorded per day from at least two transfections across 3‐4 days to control for cell health and transfection efficiency. At least three cells expressing wild‐type receptors were recorded on days that mutant receptors were tested to provide a time‐matched expression control. All reagents were purchased from Sigma‐Aldrich (St. Louis, MO) unless otherwise stated.
# (§3) Extracellular solution contained 161 mM NaCl, 3 mM KCl, 1 mM MgCl2, 1.5 mM CaCl2, 10 mM HEPES, and 6 mM D‐glucose, adjusted to pH 7.4 with NaOH (320‐330 mOsm). […] The perfusion system was controlled by protocols written in pClamp 9 (Molecular Devices, LLC., Sunnyvale, CA). Whole‐cell currents were recorded at ‐60 mV, filtered at 100 Hz and sampled at 200 Hz with a MultiClamp 700B amplifier (Molecular Devices, LLC) and DigiData 1322A (Molecular Devices, LLC) digitizer. […] Cells were recorded with the midazolam protocol no more than two times to avoid desensitization and incomplete washout or irreversible modulation.
# (§4) Recordings were analyzed using MATLAB (Math Works, Inc., Natick, MA). […] The maximum peak current, EC50 and Hill coefficient were estimated for assays from each cell. When Hill parameters are estimated from whole‐cell recordings, the changes in the parameters across receptor conditions can be ascribed to the following changes in receptor physiology. Changes in maximum current can be due to changes in the single‐channel conductance or the rate of desensitization. Changes in cell surface receptor expression can cause minor changes in maximum current, but are unlikely to occur in the time course of our experimental protocol. […] More often minor changes in the Hill coefficient are attributed to the altered homogeneity in the receptor population expressed by the HEK293T cell. For example, a shallower Hill coefficient could be caused by a shift in the population of receptors from mostly αβγ receptors to a combination of both αβ and αβγ receptors.
# [2] = target: T2, α6(N204I)β2γ2 GABAA receptor (Homo sapiens, UniProt P18507+P47870+Q16445, N223I)
# T2 construct: expressed in transfected cells; host or cells: HEK293T
# T2 sequence (Q16445 20-453 N223I): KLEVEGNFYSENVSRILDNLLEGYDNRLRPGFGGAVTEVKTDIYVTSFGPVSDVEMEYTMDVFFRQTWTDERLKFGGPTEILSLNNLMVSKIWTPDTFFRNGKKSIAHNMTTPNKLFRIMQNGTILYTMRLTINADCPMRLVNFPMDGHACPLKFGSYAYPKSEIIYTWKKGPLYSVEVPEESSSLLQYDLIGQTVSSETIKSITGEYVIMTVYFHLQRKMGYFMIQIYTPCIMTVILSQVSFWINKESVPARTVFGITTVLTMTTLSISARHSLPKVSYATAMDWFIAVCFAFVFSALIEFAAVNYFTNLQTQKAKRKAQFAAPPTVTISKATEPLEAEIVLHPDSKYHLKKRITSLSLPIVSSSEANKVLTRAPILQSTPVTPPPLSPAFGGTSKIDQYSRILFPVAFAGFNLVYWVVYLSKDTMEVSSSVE
# T2 sequence (P47870 26-474 isoform P47870-1 limits assumed, stated change not applied): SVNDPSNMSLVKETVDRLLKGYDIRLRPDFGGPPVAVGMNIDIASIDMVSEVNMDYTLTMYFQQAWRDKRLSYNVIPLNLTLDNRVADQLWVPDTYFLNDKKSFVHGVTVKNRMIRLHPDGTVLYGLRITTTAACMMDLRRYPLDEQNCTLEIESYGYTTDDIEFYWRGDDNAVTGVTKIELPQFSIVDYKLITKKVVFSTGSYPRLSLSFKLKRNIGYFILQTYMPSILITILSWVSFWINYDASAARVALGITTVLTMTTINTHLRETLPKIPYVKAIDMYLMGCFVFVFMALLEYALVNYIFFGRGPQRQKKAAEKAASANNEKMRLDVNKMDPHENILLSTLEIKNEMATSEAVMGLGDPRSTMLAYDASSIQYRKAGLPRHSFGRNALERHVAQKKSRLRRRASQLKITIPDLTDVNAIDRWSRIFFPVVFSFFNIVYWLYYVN
# T2 sequence (P18507 40-467 isoform P18507-1 limits assumed, stated change not applied): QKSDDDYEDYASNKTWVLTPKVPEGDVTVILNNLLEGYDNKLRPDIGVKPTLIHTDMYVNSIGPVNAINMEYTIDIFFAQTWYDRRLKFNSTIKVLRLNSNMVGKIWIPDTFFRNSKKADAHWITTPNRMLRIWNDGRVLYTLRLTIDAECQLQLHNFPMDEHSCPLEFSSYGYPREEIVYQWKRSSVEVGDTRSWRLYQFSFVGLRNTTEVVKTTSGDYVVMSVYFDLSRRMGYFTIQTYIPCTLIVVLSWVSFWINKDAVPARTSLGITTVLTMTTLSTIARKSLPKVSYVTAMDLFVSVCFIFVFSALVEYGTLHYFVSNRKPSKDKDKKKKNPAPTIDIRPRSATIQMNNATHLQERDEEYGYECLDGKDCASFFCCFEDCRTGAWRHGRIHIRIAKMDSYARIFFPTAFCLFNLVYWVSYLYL
# From the text: as §1, §2, §3, §4
# α5β2γ2 GABAA receptor = target: T3, α5β2γ2 GABAA receptor (Homo sapiens, UniProt P18507+P31644+P47870)
# T3 construct: expressed in transfected cells; host or cells: HEK293T
# T3 sequence (P31644 32-462): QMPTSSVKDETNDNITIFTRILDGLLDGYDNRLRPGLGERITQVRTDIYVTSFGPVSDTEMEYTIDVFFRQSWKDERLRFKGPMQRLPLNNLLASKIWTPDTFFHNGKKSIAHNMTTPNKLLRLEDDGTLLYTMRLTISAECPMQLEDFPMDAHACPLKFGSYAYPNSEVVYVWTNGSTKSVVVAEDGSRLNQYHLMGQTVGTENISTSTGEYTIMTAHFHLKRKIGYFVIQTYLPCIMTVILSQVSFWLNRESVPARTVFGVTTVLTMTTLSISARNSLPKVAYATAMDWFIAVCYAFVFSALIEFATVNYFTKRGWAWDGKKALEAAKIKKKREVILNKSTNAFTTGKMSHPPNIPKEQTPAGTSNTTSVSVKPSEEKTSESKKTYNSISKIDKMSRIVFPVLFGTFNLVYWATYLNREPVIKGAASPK
# T3 sequence (P47870 26-474 isoform P47870-1 limits assumed): as the sequence (P47870 26-474 isoform P47870-1 limits assumed, stated change not applied) above
# T3 sequence (P18507 40-467 isoform P18507-1 limits assumed): as the sequence (P18507 40-467 isoform P18507-1 limits assumed, stated change not applied) above
# From the text: as §1, §2, §3, §4
# [3] = target: T4, α5(P166T)β2γ2 GABAA receptor (Homo sapiens, UniProt P18507+P31644+P47870, P197T)
# T4 construct: expressed in transfected cells; host or cells: HEK293T
# T4 sequence (P31644 32-462 P197T): as the sequence (P31644 32-462) above, with P166T counted along it
# T4 sequence (P47870 26-474 isoform P47870-1 limits assumed, stated change not applied): as the sequence (P47870 26-474 isoform P47870-1 limits assumed, stated change not applied) above
# T4 sequence (P18507 40-467 isoform P18507-1 limits assumed, stated change not applied): as the sequence (P18507 40-467 isoform P18507-1 limits assumed, stated change not applied) above
# From the text: as §1, §2, §3, §4
# [4] = target: T5, α5(S209I)β2γ2 GABAA receptor (Homo sapiens, UniProt P18507+P31644+P47870, S240I)
# T5 construct: expressed in transfected cells; host or cells: HEK293T
# T5 sequence (P31644 32-462 S240I): as the sequence (P31644 32-462) above, with S209I counted along it
# T5 sequence (P47870 26-474 isoform P47870-1 limits assumed, stated change not applied): as the sequence (P47870 26-474 isoform P47870-1 limits assumed, stated change not applied) above
# T5 sequence (P18507 40-467 isoform P18507-1 limits assumed, stated change not applied): as the sequence (P18507 40-467 isoform P18507-1 limits assumed, stated change not applied) above
# From the text: as §1, §2, §3, §4
# T1 sequence (P48169 36-554 P196T): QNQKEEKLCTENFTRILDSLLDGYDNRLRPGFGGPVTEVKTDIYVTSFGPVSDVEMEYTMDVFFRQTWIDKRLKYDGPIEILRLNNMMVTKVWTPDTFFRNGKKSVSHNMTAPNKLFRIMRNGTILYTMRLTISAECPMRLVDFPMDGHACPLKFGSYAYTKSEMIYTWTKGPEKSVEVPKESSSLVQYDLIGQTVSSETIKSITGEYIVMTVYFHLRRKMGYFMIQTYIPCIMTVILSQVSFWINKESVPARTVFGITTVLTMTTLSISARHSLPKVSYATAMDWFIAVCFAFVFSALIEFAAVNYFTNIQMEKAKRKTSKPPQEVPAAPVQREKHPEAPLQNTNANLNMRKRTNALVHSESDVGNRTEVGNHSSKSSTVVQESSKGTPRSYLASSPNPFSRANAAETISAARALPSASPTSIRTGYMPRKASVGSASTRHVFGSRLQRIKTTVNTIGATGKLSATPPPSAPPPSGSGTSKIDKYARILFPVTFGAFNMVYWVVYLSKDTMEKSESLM
# T1 sequence (P47870 26-474 isoform P47870-1 limits assumed, stated change not applied): as the sequence (P47870 26-474 isoform P47870-1 limits assumed, stated change not applied) above
# T1 sequence (P18507 40-467 isoform P18507-1 limits assumed, stated change not applied): as the sequence (P18507 40-467 isoform P18507-1 limits assumed, stated change not applied) above
smiles,measurement,setting,value
"NCCCC(=O)O [GABA, γ‐aminobutyric acid]",Max Current (pA),[1],-4487 ± 397.2 pA
same,Max Current (pA),[2],-3549 ± 408.6 pA
same,Hill coefficient,α5β2γ2 GABAA receptor,1.547 ± 0.123
same,Max Current (pA),α5β2γ2 GABAA receptor,-5115 ± 315.9 pA
same,Hill coefficient,[3],1.420 ± 0.064
same,Max Current (pA),[3],-4543 ± 553.0 pA
same,Hill coefficient,[4],1.434 ± 0.059
same,Max Current (pA),[4],-6073 ± 742.0 pA

# Reference: publication PMC6234229, “The role of loops B and C in determining the potentiation of GABAA receptors by midazolam” (Pharmacology Research & Perspectives, 2018)
